Assay results reported in patent US4861788A, “Antibacterial 1-normon-2-yl-heterocyclic compounds” (Beecham Group plc, priority 1983, dated 1989).
Converted amounts (≈) assume the structure as drawn. Like-named read-outs stand apart in the source and are kept apart here.

Columns and labels:
[1] = tested on: M. hyopneumoniae TAM 6N; assay: MIC against Mycoplasma in vitro (Friis broth with agarose); type: cell-based; settings: Mesomycoplasma hyopneumoniae, TAM6N, 144 h
[2] = tested on: Bord. bronchiseptica B09; assay: MIC against veterinary bacteria in vitro (Diagnostic Sensitivity Test Agar); settings: Bordetella bronchiseptica, B09, 18 h
Experimental: (§2) The activity of the normonyl derivatives of the Examples against various veterinarily important bacteria, was assayed in vitro using two-fold serial dilutions in Diagnostic Sensitivity Test Agar inoculated with 10^4 organisms.

[3] = tested on: S. typhimurium S18; assay: as above; settings: Salmonella enterica, 18 h
Experimental: as §2

[4] = tested on: E. coli NCTC 10418; assay: as above; settings: Escherichia coli, NCTC10418, 18 h
Experimental: as §2

[5] = tested on: Staph. aureus B4 (pen. resistant); assay: as above; settings: Staphylococcus aureus, 18 h
Experimental: as §2

[6] = tested on: M. bovigenitalium ATCC 14173; assay: MIC against Mycoplasma in vitro (Friis broth with agarose); type: cell-based; settings: 144 h
[7] = tested on: Past. haemolytica PA5; assay: MIC against veterinary bacteria in vitro (Diagnostic Sensitivity Test Agar); settings: Mannheimia haemolytica, PA5, 18 h
Experimental: as §2

[8] = tested on: Staph. aureus Oxford; assay: as above; settings: Staphylococcus aureus, 18 h
Experimental: as §2

[9] = tested on: Strep. suis (group D) SPS11; assay: as above; settings: Streptococcus suis, 18 h
Experimental: as §2

[10] = tested on: K. aerogenes A; assay: MIC against human bacteria in vitro (nutrient agar, chocolated horse blood); type: cell-based; settings: Klebsiella aerogenes; human; K. aerogenes A; 18 hours at 37° C; read-out: MIC
Method in brief: (§1)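 Serial dilutions in nutrient agar plus 5% chocolated horse blood served as the in vitro test system.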

[11] = tested on: Haemophilus influenzae Wy21; assay: as above; type: cell-based
Method in brief: as §1

[12] = tested on: E. coli ESS; assay: as above; type: cell-based; settings: Escherichia coli; human; E. coli ESS; 18 hours at 37° C; read-out: MIC
Method in brief: as §1

[13] = tested on: Staph. aureus Oxford; assay: as above; type: cell-based; settings: Staphylococcus aureus; human; Staph. aureus Oxford; 18 hours at 37° C; read-out: MIC
Method in brief: as §1

[14] = tested on: Corynebacterium xerosis 9755; assay: as above; type: cell-based; settings: human; Corynebacterium xerosis 9755; 18 hours at 37° C; read-out: MIC
Method in brief: as §1

[15] = tested on: Strep. pyogenes R80/421-A; assay: as above; type: cell-based; settings: Streptococcus pyogenes; human; Strep. pyogenes R80/421-A; 18 hours at 37° C; read-out: MIC
Method in brief: as §1

[16] = tested on: M. dispar NCTC 10125; assay: MIC against Mycoplasma in vitro (Friis broth with agarose); type: cell-based; settings: 144 h
[17] = tested on: M. hyopneumoniae LABER; assay: as above; type: cell-based; settings: Mesomycoplasma hyopneumoniae, 144 h
[18] = tested on: Strep. agalactiae SPA1; assay: MIC against veterinary bacteria in vitro (Diagnostic Sensitivity Test Agar); settings: Streptococcus agalactiae, SPA1, 18 h
Experimental: as §2

[19] = tested on: Strep. dysgalactiae SPD1; assay: as above; settings: Streptococcus dysgalactiae, SPD1, 18 h
Experimental: as §2

[20] = tested on: S. dublin S7; assay: as above; settings: Salmonella enterica, S7, 18 h
Experimental: as §2

[21] = tested on: M. hyosynoviae ATCC 25591; assay: MIC against Mycoplasma in vitro (Friis broth with agarose); type: cell-based; settings: 144 h
[22] = tested on: M. hyopneumoniae HK (2); assay: as above; type: cell-based; settings: Mesomycoplasma hyopneumoniae, 144 h
[23] = tested on: B. subtilis ATCC 6633; assay: MIC against veterinary bacteria in vitro (Diagnostic Sensitivity Test Agar); settings: Bacillus subtilis, ATCC6633, 18 h
Experimental: as §2

[24] = tested on: M. hyopneumoniae PW/C/210; assay: MIC against Mycoplasma in vitro (Friis broth with agarose); type: cell-based; settings: Mesomycoplasma hyopneumoniae, 144 h; M. hyopneumoniae PW/C/210; 6 days at 37° C; read-out: MIC
[25] = tested on: M. hyopneumoniae NB12; assay: as above; type: cell-based; settings: Mesomycoplasma hyopneumoniae, 144 h; M. hyopneumoniae NB12; 6 days at 37° C; read-out: MIC
[26] = tested on: Neisseria catarrhalis 1502; assay: MIC against human bacteria in vitro (nutrient agar, chocolated horse blood); type: cell-based; settings: human; Neisseria catarrhalis 1502; 18 hours at 37° C; read-out: MIC
Method in brief: as §1

[27] = M. bovigenitalium ATCC 14173, 6 days at 37° C, read-out: MIC
[28] = human, Haemophilus influenzae Wy21, 18 hours at 37° C, read-out: MIC
[29] = M. dispar NCTC 10125, 6 days at 37° C, read-out: MIC
[30] = M. hyopneumoniae TAM 6N, 6 days at 37° C, read-out: MIC
[31] = M. hyosynoviae ATCC 25591, 6 days at 37° C, read-out: MIC
[32] = M. hyopneumoniae LABER, 6 days at 37° C, read-out: MIC
[33] = M. hyopneumoniae HK (2), 6 days at 37° C, read-out: MIC

Row | Compound | MIC [2] [µg/mL] | MIC [3] [µg/mL] | MIC [4] [µg/mL] | MIC [5] [µg/mL] | MIC [6, 27] [µg/mL] | MIC [7] [µg/mL] | MIC [8] [µg/mL] | MIC [9] [µg/mL] | MIC [10] [µg/mL] | MIC [11, 28] [µg/mL] | MIC [12] [µg/mL] | MIC [13] [µg/mL] | MIC [14] [µg/mL] | MIC [15] [µg/mL] | MIC [16, 29] [µg/mL] | MIC [18] [µg/mL] | MIC [19] [µg/mL] | MIC [20] [µg/mL] | MIC [1, 30] [µg/mL] | MIC [21, 31] [µg/mL] | other results
1 | CC(=Cc1nnc(-c2cccs2)o1)CC1OCC(CC2OC2C(C)C(C)O)C(O)C1O (stereo not drawn) [Example 6, 2-(1-Normon-2-yl)-5-(2-thienyl)-1,3,4-oxadiazole A] | 80 (≈ 178 µM) | > 80 | > 80 | 2.5 (≈ 5.55 µM) | 0.25 (≈ 0.555 µM) | 20 (≈ 44.4 µM) | 10 (≈ 22.2 µM) | 80 (≈ 178 µM) | > 128 | 2 (≈ 4.44 µM) | 8 (≈ 17.8 µM) | 8 (≈ 17.8 µM) | 128 (≈ 284 µM) | 16 (≈ 35.5 µM) | 1 (≈ 2.22 µM) | 40 (≈ 88.8 µM) | 40 (≈ 88.8 µM) | > 80 |  |  | MIC [1]: 5 µg/mL (≈ 11.1 µM); MIC [17]: 2.5 µg/mL (≈ 5.55 µM); MIC [21]: 2.5 µg/mL (≈ 5.55 µM); MIC [22]: 5 µg/mL (≈ 11.1 µM)
2 | CC(=Cc1nc(-c2ccc([N+](=O)[O-])cc2)no1)CC1OCC(CC2OC2C(C)C(C)O)C(O)C1O (stereo not drawn) [Example 16, 5-(1-Normon-2-yl)-3-(4-nitrophenyl)-1,2,4-oxadiazole] | 10 (≈ 20.4 µM) | > 80 | > 80 | 1.25 (≈ 2.55 µM) | 0.5 (≈ 1.02 µM) | 20 (≈ 40.9 µM) | 2.5 (≈ 5.11 µM) | 80 (≈ 163 µM) | > 64 | 4 (≈ 8.17 µM) | 8 (≈ 16.3 µM) | 16 (≈ 32.7 µM) | > 64 | 32 (≈ 65.4 µM) |  | 5 (≈ 10.2 µM) | 10 (≈ 20.4 µM) | > 80 | 1 (≈ 2.04 µM) | 5 (≈ 10.2 µM) | MIC [23]: 2.5 µg/mL (≈ 5.11 µM); MIC [16]: 0.1 µg/mL (≈ 0.204 µM); MIC [17]: 0.25 µg/mL (≈ 0.511 µM)
3 | CC(=Cc1nc(-c2ccccc2)no1)CC1OCC(CC2OC2C(C)C(C)O)C(O)C1O (stereo not drawn) [Example 15, 5-(1-Normon-2-yl)-3-phenyl-1,2,4-oxadiazole A] | 80 (≈ 180 µM) | > 80 | > 80 | 5 (≈ 11.2 µM) | 0.5 (≈ 1.12 µM) | > 80 | 40 (≈ 90 µM) | > 80 | > 128 | 4 (≈ 9 µM) | 8 (≈ 18 µM) | 16 (≈ 36 µM) | > 128 | 32 (≈ 72 µM) | 2.5 (≈ 5.62 µM) |  | 10 (≈ 22.5 µM) | > 80 | 10 (≈ 22.5 µM) | 10 (≈ 22.5 µM) | MIC [17, 32]: 5 µg/mL (≈ 11.2 µM); MIC [24]: 5 µg/mL (≈ 11.2 µM); MIC [25]: 10 µg/mL (≈ 22.5 µM); MIC [22, 33]: 10 µg/mL (≈ 22.5 µM)
4 | CC(=Cc1nnc(-c2ccncc2)o1)CC1OCC(CC2OC2C(C)C(C)O)C(O)C1O (stereo not drawn) [Example 7, 2-(1-Normon-2-yl)-5-(4-pyridyl)-1,3,4-oxadiazole A] | 20 (≈ 44.9 µM) | > 80 | > 80 | 10 (≈ 22.4 µM) |  | 20 (≈ 44.9 µM) | > 80 | > 80 | 128 (≈ 287 µM) |  | 64 (≈ 144 µM) | 2 (≈ 4.49 µM) |  |  |  | 20 (≈ 44.9 µM) | 10 (≈ 22.4 µM) | > 80 | 2.5 (≈ 5.61 µM) | 0.5 (≈ 1.12 µM) | MIC [23]: 2.5 µg/mL (≈ 5.61 µM); MIC [6]: 0.25 µg/mL (≈ 0.561 µM); MIC ([11]; Haemophilus influenzae, WY21, 18 h): 1 µg/mL (≈ 2.24 µM); MIC [26]: 0.25 µg/mL (≈ 0.561 µM); MIC [16]: 0.25 µg/mL (≈ 0.561 µM)
5 | CC(=Cc1noc(-c2ccccc2)n1)CC1OCC(CC2OC2C(C)C(C)O)C(O)C1O (stereo not drawn) [Example 17, 3-(1-Normon-2-yl)-5-phenyl-1,2,4-oxadiazole] | 40 (≈ 90 µM) | > 80 | > 80 | 1.25 (≈ 2.81 µM) |  | 80 (≈ 180 µM) | 2.5 (≈ 5.62 µM) | 20 (≈ 45 µM) | > 128 | 1 (≈ 2.25 µM) | 4 (≈ 9 µM) | 4 (≈ 9 µM) | > 128 | 4 (≈ 9 µM) | 0.5 (≈ 1.12 µM) | 5 (≈ 11.2 µM) | 2.5 (≈ 5.62 µM) | > 80 | 2.5 (≈ 5.62 µM) | 1 (≈ 2.25 µM) | MIC [23]: 0.625 µg/mL (≈ 1.41 µM); MIC [6]: 0.1 µg/mL (≈ 0.225 µM)
6 | CSc1ccc(-c2nnc(C=C(C)CC3OCC(CC4OC4C(C)C(C)O)C(O)C3O)o2)cc1 (stereo not drawn) [Example 3, 2-p-Methylthiophenyl-5-(1-normon-2-yl)-1,3,4-oxadiazole A] | 5 (≈ 10.2 µM) | > 80 | > 80 | 2.5 (≈ 5.1 µM) | 0.5 (≈ 1.02 µM) | 20 (≈ 40.8 µM) | 5 (≈ 10.2 µM) | 80 (≈ 163 µM) | > 128 | 2 (≈ 4.08 µM) | 4 (≈ 8.15 µM) | 8 (≈ 16.3 µM) | > 128 | 16 (≈ 32.6 µM) | 0.25 (≈ 0.51 µM) | 10 (≈ 20.4 µM) | 10 (≈ 20.4 µM) | > 80 | 2.5 (≈ 5.1 µM) | 2.5 (≈ 5.1 µM) | MIC [17, 32]: 1 µg/mL (≈ 2.04 µM); MIC [24]: 0.5 µg/mL (≈ 1.02 µM); MIC [25]: 1 µg/mL (≈ 2.04 µM); MIC [22, 33]: 1 µg/mL (≈ 2.04 µM)
